Measured values from ChEMBL document CHEMBL1157586 (Bioorg Med Chem, 2010).
Converted amounts (≈) assume the structure as drawn.

Tests used:
[1] = Solubility at pH 7; type: physicochemical; conditions: buffer
[2] = biological target: Cyclin-dependent kinase 2/cyclin A (Homo sapiens, UniProt P24941); assay: Inhibition of human CDK2/cyclin A expressed in Escherichia coli BL21 by scintillation proximity assay
A2780 = assay: Antiproliferative activity against human A2780 cells after 72 hrs by CellTiter-Glo luminescence assay; conditions: A2780, 72 h

| solubility [1] [µM] | IC50 [2] [nM] | IC50 (A2780) [nM] | Structure (SMILES) |
| --- | --- | --- | --- |
| > 225 | 14 | 100 | CN1CCC(C(=O)N2Cc3c(NC(=O)c4ccc(F)c(F)c4)n[nH]c3C2(C)C)CC1 |
| 191 (≈ 85.9 µg/mL) | 26 | 60 | CN1CCC(C(=O)N2Cc3c(NC(=O)c4ccc(C(F)(F)F)cc4)n[nH]c3C2(C)C)CC1 |
| > 225 | 10 | 350 | CN1CCC(C(=O)N2Cc3c(NC(=O)Nc4cccc(F)c4)n[nH]c3C2(C)C)CC1 |
| > 225 | 15 | 1420 | CN1CCC(C(=O)N2Cc3c(NC(=O)C4CC4)n[nH]c3C2(C)C)CC1 |
| 55 (≈ 25.4 µg/mL) | 3500 | – | CC1(C)c2[nH]nc(NC(=O)c3ccc(F)cc3)c2CN1C(=O)N1CCN(c2ccccc2)CC1 |
| 204 (≈ 78.6 µg/mL) | 30 | 650 | CC1(C)c2[nH]nc(NC(=O)c3ccc(F)cc3)c2CN1C(=O)C1CCNCC1 |
| > 225 | 214 | 350 | CN1CCC(C(=O)Nc2n[nH]c3c2CN(C(=O)C(C)(C)C)C3(C)C)CC1 |
| > 225 | 25 | 500 | CN1CCC(C(=O)N2Cc3c(NC(=O)c4ccncc4)n[nH]c3C2(C)C)CC1 |
| 204 (≈ 87.2 µg/mL) | 4800 | > 10000 | CC(=O)N1CCC(C(=O)N2Cc3c(NC(=O)c4ccc(F)cc4)n[nH]c3C2(C)C)CC1 |
| > 225 | 24 | 320 | CC(C)CC(=O)Nc1n[nH]c2c1CN(C(=O)C1CCN(C3CC3)CC1)C2(C)C |
| > 225 | 77 | 580 | CN(C)CC(=O)Nc1n[nH]c2c1CN(C(=O)C(C)(C)C)C2(C)C |
| > 225 | 30 | 290 | CCN1CCC(C(=O)N2Cc3c(NC(=O)c4ccc(F)cc4)n[nH]c3C2(C)C)CC1 |
| > 225 | 169 | 650 | CC(C)(C)C(=O)N1Cc2c(NC(=O)C3CCNCC3)n[nH]c2C1(C)C |
| > 225 | 33 | > 5000 | CN1CCC(C(=O)N2Cc3c(NC(=O)c4ccco4)n[nH]c3C2(C)C)CC1 |
| > 225 | 14 | 200 | CN1CCC(C(=O)N2Cc3c(NC(=O)c4cccc(F)c4)n[nH]c3C2(C)C)CC1 |
| > 225 | 60 | > 5000 | CC1(C)c2[nH]nc(NC(=O)c3ccc(F)cc3)c2CN1C(=O)N1CCN(CCO)CC1 |
| > 225 | 23 | 160 | CN1CCC(C(=O)N2Cc3c(NC(=O)c4ccccc4)n[nH]c3C2(C)C)CC1 |

| solubility [1] [µM] | IC50 [2] [nM] | IC50 (A2780) [nM] | Structure (SMILES) |
| --- | --- | --- | --- |
| > 225 | 5 | 140 | CN1CCC(C(=O)N2Cc3c(NC(=O)c4ccsc4)n[nH]c3C2(C)C)CC1 |
| > 225 | 46 | 180 | CN1CCN(C(=O)N2Cc3c(NC(=O)c4ccc(F)cc4)n[nH]c3C2(C)C)CC1 |
| > 225 | 68 | 380 | CC1(C)c2[nH]nc(NC(=O)c3ccc(F)cc3)c2CN1C(=O)C1CCN(C2CC2)CC1 |
| > 225 | 540 | > 10000 | CC(=O)N1CCN(C(=O)N2Cc3c(NC(=O)c4ccc(F)cc4)n[nH]c3C2(C)C)CC1 |
| > 225 | 11 | 650 | CCCNC(=O)Nc1n[nH]c2c1CN(C(=O)C1CCN(C)CC1)C2(C)C |
| 200 | 16 | 60 | OC[C@H]1O[C@H](OC[C@H]2O[C@@H](O[C@]3(CO)O[C@H](CO)[C@@H](O)[C@@H]3O)[C@H](O)[C@@H](O)[C@@H]2O)[C@H](O)[C@@H](O)[C@H]1O.OC[C@H]1O[C@H](OC[C@H]2O[C@H](O[C@]3(CO)O[C@H](CO)[C@@H](O)[C@@H]3O)[C@H](O)[C@@H](O)[C@@H]2O)[C@H](O)[C@@H](O)[C@H]1O |
| > 225 | 21 | 2680 | CN1CCC(C(=O)N2Cc3c(NC(=O)NCc4ccccc4)n[nH]c3C2(C)C)CC1 |
| 155 (≈ 60.1 µg/mL) | 10 | 30 | CN1CCC(C(=O)N2Cc3c(NC(=O)c4cccs4)n[nH]c3C2(C)C)CC1 |
| > 225 | 9 | 140 | CN1CCC(C(=O)N2Cc3c(NC(=O)C4CCC4)n[nH]c3C2(C)C)CC1 |
| 219 (≈ 94.5 µg/mL) | 27 | 270 | CN1CCC(C(=O)N2Cc3c(NC(=O)c4ccc5ccccc5c4)n[nH]c3C2(C)C)CC1 |
| 205 (≈ 70 µg/mL) | 49 | 110 | CC(C)(C)C(=O)N1Cc2c(NC(=O)c3ccncc3)n[nH]c2C1(C)C |
| > 225 | 16 | 130 | CN1CCC(C(=O)N2Cc3c(NC(=O)c4cc(F)cc(F)c4)n[nH]c3C2(C)C)CC1 |
| > 225 | 14 | 410 | CCN1CCC(C(=O)N2Cc3c(NC(=O)CC(C)C)n[nH]c3C2(C)C)CC1 |
| > 225 | 15 | 120 | CN1CCC(C(=O)N2Cc3c(NC(=O)c4ccc(Cl)cc4)n[nH]c3C2(C)C)CC1 |
| 235 (≈ 84.2 µg/mL) | – | 270 | CC(C)(C)C(=O)N1Cc2c(NC(=O)c3ccc(F)cc3)n[nH]c2C1(C)C |
| 207 (≈ 70.7 µg/mL) | 50 | 690 | CC(C)(C)C(=O)N1Cc2c(NC(=O)c3cccnc3)n[nH]c2C1(C)C |
| > 225 | 23 | 120 | CN1CCC(C(=O)N2Cc3c(NC(=O)c4ccc(F)cc4)n[nH]c3C2(C)C)CC1 |
